Experimental data as given in US20240269139A1, “COMPOUNDS FOR TARGETED PROTEIN DEGRADATION OF KINASES” (DANA-FARBER CANCER INSTITUTE, INC., priority 2020, published 2024).
Read-outs that look alike come from different tables or passages of the source.

Key:
[1] = molecular target: protein kinases (human kinome) (Homo sapiens, UniProt P04183); assay type: cell-based; settings: TK1 (P04183); experiment wp168
[2] = molecular target: protein kinases (human kinome) (Homo sapiens, UniProt P06239); assay type: cell-based; settings: experiment wp168
[3] = molecular target: protein kinases (human kinome) (Homo sapiens, UniProt P07947); assay type: cell-based; settings: YES1 (P07947), experiment wp168
[4] = molecular target: protein kinases (human kinome) (Homo sapiens, UniProt P11802); assay type: cell-based; settings: experiment wp168
protein kinases (human kinome) (Homo sapiens, UniProt P11802), sequence (P11802 whole entry): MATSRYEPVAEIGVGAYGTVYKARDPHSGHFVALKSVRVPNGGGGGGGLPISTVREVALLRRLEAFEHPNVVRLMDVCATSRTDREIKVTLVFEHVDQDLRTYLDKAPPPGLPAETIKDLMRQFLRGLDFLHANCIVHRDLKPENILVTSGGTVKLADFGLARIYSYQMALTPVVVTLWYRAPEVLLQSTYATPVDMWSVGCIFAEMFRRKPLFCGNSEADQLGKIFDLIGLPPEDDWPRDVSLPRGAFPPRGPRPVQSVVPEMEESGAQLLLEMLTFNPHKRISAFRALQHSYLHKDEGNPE

[5] = molecular target: protein kinases (human kinome) (Homo sapiens, UniProt P12931); assay type: cell-based
protein kinases (human kinome) (Homo sapiens, UniProt P12931), sequence (P12931 whole entry): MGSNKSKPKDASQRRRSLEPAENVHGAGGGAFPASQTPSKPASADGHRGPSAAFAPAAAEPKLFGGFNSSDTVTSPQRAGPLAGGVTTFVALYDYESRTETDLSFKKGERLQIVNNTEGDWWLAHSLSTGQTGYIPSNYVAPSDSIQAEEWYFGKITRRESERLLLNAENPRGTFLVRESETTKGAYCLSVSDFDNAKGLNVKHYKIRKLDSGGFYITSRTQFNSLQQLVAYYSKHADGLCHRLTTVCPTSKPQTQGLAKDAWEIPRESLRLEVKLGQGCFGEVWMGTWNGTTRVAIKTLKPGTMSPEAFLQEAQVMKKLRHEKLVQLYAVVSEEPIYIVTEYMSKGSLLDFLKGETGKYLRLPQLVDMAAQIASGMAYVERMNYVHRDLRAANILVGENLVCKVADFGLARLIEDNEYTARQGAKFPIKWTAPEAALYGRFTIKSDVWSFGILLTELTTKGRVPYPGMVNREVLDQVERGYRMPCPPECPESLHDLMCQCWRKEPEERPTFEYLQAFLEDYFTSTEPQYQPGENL

[6] = molecular target: protein kinases (human kinome) (Homo sapiens, UniProt P16591); assay type: cell-based
[7] = molecular target: protein kinases (human kinome) (Homo sapiens, UniProt P35790); assay type: cell-based; settings: CHKA P35790; experiment wp168
[8] = molecular target: protein kinases (human kinome) (Homo sapiens, UniProt P41240); assay type: cell-based; settings: experiment wp168
protein kinases (human kinome) (Homo sapiens, UniProt P41240), sequence (P41240 whole entry): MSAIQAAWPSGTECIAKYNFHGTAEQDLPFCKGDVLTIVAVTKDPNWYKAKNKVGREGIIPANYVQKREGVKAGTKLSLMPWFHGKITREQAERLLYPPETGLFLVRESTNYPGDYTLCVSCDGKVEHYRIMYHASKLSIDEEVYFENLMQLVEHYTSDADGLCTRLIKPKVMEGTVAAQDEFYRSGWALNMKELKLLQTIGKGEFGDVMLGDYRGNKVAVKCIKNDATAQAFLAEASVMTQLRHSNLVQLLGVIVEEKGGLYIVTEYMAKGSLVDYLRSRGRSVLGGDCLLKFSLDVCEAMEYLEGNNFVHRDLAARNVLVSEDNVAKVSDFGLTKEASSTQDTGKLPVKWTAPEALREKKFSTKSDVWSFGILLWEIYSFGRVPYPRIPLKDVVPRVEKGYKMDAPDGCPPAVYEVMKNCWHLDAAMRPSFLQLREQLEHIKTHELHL

[9] = molecular target: protein kinases (human kinome) (Homo sapiens, UniProt P45984); assay type: cell-based; settings: MAPK9 P45984-1; experiment wp168
protein kinases (human kinome) (Homo sapiens, UniProt P45984), sequence (P45984 whole entry): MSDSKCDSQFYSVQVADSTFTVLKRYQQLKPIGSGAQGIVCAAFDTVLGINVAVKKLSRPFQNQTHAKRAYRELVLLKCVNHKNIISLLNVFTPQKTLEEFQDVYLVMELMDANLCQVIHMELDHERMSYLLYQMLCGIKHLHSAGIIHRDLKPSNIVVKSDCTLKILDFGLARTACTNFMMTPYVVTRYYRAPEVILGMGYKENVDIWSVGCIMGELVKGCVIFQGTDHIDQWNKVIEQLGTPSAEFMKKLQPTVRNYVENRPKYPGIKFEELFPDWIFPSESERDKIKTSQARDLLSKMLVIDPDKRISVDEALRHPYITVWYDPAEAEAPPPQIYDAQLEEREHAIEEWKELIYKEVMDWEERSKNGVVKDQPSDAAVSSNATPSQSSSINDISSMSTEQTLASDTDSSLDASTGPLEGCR

[10] = molecular target: protein kinases (human kinome) (Homo sapiens, UniProt P49759); assay type: cell-based
protein kinases (human kinome) (Homo sapiens, UniProt P49759), sequence (P49759 whole entry): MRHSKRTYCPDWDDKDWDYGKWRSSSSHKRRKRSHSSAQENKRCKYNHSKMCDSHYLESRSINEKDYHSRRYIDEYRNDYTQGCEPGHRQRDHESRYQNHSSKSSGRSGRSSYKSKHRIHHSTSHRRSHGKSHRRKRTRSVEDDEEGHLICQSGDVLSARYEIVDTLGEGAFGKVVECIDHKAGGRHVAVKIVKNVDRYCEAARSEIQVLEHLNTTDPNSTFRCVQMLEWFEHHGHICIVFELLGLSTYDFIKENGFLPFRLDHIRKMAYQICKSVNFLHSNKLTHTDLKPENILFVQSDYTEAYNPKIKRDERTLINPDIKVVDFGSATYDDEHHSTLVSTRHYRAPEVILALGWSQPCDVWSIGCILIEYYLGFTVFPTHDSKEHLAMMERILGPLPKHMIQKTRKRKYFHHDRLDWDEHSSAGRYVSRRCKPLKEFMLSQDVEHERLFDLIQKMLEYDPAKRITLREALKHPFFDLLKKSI

[11] = molecular target: protein kinases (human kinome) (Homo sapiens, UniProt P51451); assay type: cell-based
[12] = molecular target: protein kinases (human kinome) (Homo sapiens, UniProt P53350); assay type: cell-based; settings: PLK1 P53350; experiment wp168
[13] = molecular target: protein kinases (human kinome) (Homo sapiens, UniProt P53667); assay type: cell-based; settings: LIMK1 (P53667-1), experiment wp168
[14] = molecular target: protein kinases (human kinome) (Homo sapiens, UniProt Q07912); assay type: cell-based
[15] = molecular target: T1, protein kinases (human kinome) (Homo sapiens, UniProt Q8TAS1); assay type: cell-based; settings: experiment wp168
T1 sequence (Q8TAS1 1-419): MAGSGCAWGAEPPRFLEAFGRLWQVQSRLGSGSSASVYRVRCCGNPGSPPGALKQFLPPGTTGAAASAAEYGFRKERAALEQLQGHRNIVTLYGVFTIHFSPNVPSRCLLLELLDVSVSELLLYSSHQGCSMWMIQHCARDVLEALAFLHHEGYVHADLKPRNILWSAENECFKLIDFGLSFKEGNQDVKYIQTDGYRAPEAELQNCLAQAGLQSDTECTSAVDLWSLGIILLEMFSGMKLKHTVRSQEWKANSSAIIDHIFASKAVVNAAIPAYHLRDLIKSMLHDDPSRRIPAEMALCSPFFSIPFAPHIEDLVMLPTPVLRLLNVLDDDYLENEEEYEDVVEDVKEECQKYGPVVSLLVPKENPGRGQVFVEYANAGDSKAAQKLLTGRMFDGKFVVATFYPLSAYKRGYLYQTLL

[16] = molecular target: protein kinases (human kinome) (Homo sapiens, UniProt Q9H0K1); assay type: cell-based; settings: experiment wp168
[17] = molecular target: protein kinases (human kinome) (Homo sapiens, UniProt Q9HBH9); assay type: cell-based
protein kinases (human kinome) (Homo sapiens, UniProt Q9HBH9), sequence (Q9HBH9 whole entry): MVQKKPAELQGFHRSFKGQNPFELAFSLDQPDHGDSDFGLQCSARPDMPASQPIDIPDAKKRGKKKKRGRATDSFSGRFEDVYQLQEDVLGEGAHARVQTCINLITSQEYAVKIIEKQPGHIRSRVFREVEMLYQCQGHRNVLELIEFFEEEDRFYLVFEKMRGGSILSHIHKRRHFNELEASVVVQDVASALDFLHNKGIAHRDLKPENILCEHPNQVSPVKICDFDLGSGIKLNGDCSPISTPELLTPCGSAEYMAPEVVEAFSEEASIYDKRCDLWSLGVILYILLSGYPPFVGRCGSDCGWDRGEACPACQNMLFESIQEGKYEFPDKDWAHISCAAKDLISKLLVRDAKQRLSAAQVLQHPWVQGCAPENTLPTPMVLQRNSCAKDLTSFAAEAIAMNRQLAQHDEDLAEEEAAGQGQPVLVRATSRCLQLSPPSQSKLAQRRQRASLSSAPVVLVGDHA

[18] = system: protein kinases (human kinome); assay type: cell-based
[19] = molecular target: extended human kinome (kinase-like proteins) (Homo sapiens, UniProt Q16875); assay: Whole cell quantitative proteomics: extended kinome hits; settings: Accession Q16875; experiment wp168
[20] = molecular target: T2, protein kinases (human kinome) (Homo sapiens, UniProt O14965); assay type: cell-based
T2 sequence (O14965 1-403): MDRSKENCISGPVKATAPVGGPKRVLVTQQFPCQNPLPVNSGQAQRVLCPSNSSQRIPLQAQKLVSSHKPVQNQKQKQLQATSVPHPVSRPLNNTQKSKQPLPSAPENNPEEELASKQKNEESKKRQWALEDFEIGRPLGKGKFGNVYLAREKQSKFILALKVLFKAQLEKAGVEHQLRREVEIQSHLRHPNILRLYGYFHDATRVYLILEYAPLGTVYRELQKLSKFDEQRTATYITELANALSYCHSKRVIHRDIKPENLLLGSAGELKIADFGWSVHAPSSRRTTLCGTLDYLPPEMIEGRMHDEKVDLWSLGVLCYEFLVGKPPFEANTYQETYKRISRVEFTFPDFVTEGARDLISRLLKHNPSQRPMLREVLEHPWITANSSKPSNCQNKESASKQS

[21] = molecular target: T3, protein kinases (human kinome) (Homo sapiens, UniProt P33981); assay type: cell-based; settings: experiment wp164
T3 sequence (P33981 1-857): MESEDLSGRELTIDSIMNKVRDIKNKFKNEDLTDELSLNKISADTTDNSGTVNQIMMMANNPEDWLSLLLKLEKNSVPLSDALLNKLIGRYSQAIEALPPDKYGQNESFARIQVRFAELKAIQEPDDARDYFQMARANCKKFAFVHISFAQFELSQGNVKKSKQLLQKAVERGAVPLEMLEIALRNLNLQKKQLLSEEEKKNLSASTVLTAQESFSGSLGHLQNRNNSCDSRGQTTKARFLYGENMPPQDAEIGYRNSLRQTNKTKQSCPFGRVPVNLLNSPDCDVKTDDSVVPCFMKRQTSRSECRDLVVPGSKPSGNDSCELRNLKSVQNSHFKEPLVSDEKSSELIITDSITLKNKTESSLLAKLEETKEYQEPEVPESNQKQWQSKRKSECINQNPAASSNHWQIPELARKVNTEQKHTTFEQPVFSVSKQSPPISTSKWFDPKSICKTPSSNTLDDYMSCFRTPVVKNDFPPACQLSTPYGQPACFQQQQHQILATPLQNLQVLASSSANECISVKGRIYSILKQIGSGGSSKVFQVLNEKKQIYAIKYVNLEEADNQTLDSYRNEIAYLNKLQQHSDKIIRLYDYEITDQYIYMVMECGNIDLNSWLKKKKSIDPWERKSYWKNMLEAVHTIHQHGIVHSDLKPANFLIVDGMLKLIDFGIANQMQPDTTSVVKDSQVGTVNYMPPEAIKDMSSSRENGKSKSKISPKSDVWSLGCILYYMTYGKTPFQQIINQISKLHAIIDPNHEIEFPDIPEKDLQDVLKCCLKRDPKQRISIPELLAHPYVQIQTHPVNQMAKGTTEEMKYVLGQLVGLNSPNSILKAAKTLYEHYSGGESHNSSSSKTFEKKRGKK

[22] = molecular target: protein kinases (human kinome) (Homo sapiens, UniProt P50750); assay type: cell-based; settings: experiment wp164
protein kinases (human kinome) (Homo sapiens, UniProt P50750), sequence (P50750 whole entry): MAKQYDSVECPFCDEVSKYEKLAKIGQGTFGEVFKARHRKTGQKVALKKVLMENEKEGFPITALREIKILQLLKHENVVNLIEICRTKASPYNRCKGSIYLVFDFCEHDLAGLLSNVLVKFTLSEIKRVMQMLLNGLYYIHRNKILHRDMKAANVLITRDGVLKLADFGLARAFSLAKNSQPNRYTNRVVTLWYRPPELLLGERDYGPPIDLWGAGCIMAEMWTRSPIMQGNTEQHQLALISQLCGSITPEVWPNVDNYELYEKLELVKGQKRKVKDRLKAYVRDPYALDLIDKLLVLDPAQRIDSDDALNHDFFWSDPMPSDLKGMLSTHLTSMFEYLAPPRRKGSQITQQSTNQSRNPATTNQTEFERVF

[23] = molecular target: protein kinases (human kinome) (Homo sapiens, UniProt Q00534); assay type: cell-based; settings: for logFC CDK6: CDK6 (Q00534), direction down; for logFC of CDK6 (Q00534): down
protein kinases (human kinome) (Homo sapiens, UniProt Q00534), sequence (Q00534 whole entry): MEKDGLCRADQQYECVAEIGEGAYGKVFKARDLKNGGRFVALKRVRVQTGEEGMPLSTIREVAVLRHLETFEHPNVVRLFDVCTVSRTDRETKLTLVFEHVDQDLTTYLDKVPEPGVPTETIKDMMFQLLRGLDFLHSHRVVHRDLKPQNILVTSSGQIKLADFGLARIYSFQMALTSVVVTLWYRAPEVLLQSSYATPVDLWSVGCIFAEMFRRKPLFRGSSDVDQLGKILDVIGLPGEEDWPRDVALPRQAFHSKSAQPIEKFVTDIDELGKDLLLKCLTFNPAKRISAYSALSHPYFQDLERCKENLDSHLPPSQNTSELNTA

[24] = molecular target: protein kinases (human kinome) (Homo sapiens, UniProt Q2M2I8); assay type: cell-based
protein kinases (human kinome) (Homo sapiens, UniProt Q2M2I8), sequence (Q2M2I8 whole entry): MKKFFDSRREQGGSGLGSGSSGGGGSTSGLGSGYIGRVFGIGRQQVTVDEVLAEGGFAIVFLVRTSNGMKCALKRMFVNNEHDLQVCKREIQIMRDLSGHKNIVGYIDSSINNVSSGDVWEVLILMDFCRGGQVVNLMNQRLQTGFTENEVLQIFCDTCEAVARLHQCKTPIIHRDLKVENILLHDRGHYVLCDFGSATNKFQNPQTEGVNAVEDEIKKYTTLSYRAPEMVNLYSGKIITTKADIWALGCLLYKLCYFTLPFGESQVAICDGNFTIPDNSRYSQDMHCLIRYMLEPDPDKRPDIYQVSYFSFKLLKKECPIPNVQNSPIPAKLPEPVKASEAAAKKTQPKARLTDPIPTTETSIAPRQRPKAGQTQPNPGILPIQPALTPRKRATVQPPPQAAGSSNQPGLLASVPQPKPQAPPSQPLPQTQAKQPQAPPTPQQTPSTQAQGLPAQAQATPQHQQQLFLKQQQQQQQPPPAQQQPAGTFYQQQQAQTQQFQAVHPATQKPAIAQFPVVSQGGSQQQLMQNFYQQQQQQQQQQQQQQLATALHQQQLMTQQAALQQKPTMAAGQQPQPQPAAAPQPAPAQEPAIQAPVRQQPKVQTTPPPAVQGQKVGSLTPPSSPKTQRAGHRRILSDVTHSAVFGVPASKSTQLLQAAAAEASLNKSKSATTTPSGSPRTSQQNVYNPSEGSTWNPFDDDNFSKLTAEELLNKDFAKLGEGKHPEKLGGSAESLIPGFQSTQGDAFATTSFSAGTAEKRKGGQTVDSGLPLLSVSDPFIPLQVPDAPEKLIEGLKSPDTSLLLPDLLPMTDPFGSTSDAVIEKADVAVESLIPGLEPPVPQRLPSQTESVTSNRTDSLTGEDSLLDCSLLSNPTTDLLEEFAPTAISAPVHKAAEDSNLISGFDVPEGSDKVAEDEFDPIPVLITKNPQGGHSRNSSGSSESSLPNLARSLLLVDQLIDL

[25] = molecular target: protein kinases (human kinome) (Homo sapiens, UniProt Q96GD4); assay type: cell-based; settings: experiment wp164
protein kinases (human kinome) (Homo sapiens, UniProt Q96GD4), sequence (Q96GD4 whole entry): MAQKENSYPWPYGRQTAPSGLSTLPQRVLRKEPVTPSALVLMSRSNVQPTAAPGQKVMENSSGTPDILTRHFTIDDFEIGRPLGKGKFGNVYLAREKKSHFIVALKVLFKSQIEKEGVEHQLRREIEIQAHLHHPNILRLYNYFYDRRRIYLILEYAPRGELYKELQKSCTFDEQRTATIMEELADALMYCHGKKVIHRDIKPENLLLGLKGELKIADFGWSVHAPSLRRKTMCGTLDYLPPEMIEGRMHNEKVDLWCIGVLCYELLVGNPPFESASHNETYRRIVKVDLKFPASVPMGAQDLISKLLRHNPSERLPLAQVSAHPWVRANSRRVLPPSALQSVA

[26] = molecular target: protein kinases (human kinome) (Homo sapiens, UniProt Q9HBU6); assay type: cell-based; settings: protein ETNK1 (Q9HBU6-1); experiment wp088; down
[27] = molecular target: T4, protein kinases (human kinome) (Homo sapiens, UniProt Q9UEE5); assay type: cell-based; settings: STK17A Q9UEE5; experiment wp088
T4 sequence (Q9UEE5 1-414): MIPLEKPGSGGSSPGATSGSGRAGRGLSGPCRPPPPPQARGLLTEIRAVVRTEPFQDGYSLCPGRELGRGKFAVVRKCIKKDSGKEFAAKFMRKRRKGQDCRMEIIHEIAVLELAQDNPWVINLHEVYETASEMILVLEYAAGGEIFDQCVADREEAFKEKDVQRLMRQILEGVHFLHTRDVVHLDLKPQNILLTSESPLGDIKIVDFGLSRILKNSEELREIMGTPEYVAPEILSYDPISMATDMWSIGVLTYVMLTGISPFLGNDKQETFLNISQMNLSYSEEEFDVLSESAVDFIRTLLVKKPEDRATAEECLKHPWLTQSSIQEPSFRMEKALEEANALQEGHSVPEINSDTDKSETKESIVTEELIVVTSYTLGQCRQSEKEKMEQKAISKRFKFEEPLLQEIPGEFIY

[28] = Experiment wp168, direction down
[29] = AURKB Q96GD4-5, experiment wp088

protein kinases (human kinome) (Homo sapiens, UniProt P04183), sequence (P04183 whole entry): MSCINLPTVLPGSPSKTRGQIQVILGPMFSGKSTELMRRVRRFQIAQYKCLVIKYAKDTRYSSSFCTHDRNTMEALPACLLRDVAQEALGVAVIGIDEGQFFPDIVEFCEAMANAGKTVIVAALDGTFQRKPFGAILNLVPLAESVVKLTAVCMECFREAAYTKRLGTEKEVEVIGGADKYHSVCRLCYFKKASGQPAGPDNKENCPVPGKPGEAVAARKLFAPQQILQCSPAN

## Cc1ccc(NC(=O)c2cccc(C(F)(F)F)c2)cc1N1Cc2cnc(Nc3ccc(N4CCN(CCOc5cccc6c5C(=O)N(C5CCC(=O)NC5=O)C6=O)CC4)nc3)nc2N(C)C1=O (centres unmarked) [DB0661]
[1]
  logFC: −0.3523
[2]; LCK P06239-1
  logFC LCK: −0.4717
[2]; LCK, accession P06239-1, direction of change down
  logFC LCK: −0.4717
[3]
  logFC: −0.5229
[3]; direction down
  logFC: −0.5229
[4]
  logFC CDK4 (P11802): −0.4978
[5]; Accession P12931, experiment wp168
  logFC of SRC: −0.6685
[5]; Experiment wp168
  logFC of SRC (P12931): −0.6685
[6]; Experiment wp168, down
  logFC of FER (P16591-1): −0.6143
[6]; FER P16591-1, experiment wp168
  logFC of FER: −0.6143
[7]
  logFC: −0.3607
[8]; Accession P41240
  logFC of CSK: −1.526
[8]; CSK (P41240), down
  logFC CSK: −1.526
[9]
  logFC: −1.961
  logFC MAPK9: −1.961
[10]; CLK1 P49759, experiment wp168
  logFC CLK1: −0.3319
[10]; Experiment wp168
  logFC of CLK1 (P49759): −0.3319
[11]; BLK (P51451), direction down, experiment wp168
  logFC BLK: −1.428
[11]; Experiment wp168, down
  logFC of BLK (P51451): −1.428
[12]
  logFC: −0.3453
  logFC PLK1: −0.3453
[13]; direction down
  logFC LIMK1: −1.116
[13]; down
  logFC LIMK1: −1.116
[14]; [28]
  logFC TNK2 (Q07912-1): −0.3873
[14]; TNK2 (Q07912-1), experiment wp168
  logFC TNK2: −0.3873
[15]; Accession Q8TAS1, direction down
  logFC UHMK1: −0.416
[15]; UHMK1 (Q8TAS1)
  logFC UHMK1: −0.416
[16]; Accession Q9H0K1
  logFC of SIK2: −0.3628
[16]; direction of change down
  logFC SIK2 (Q9H0K1): −0.3628
[17]; [28]
  logFC MKNK2 (Q9HBH9-1): −0.5094
[17]; MKNK2 (Q9HBH9-1), experiment wp168
  logFC: −0.5094
[18]; [28]
  logFC MAPK8 (P45983-4): −0.5033
[18]; MAPK8 P45983-4, experiment wp168
  logFC MAPK8: −0.5033
[18]; PTK2B (Q14289-2), experiment wp168, direction down
  logFC: −1.935
[18]; PTK2B, accession Q14289-2, experiment wp168, direction of change down
  logFC PTK2B: −1.935
[18]; as stated for the structure in the embodiments
  kinases the bifunctional compound degrades: BLK, CDK4, CLK1, CSK, FER, LCK, LIMK1, MAPK8, MAPK9, MKNK2, PLK1, PTK2B, SIKA2, SRC, TNK2, UHMK1, and YES1
[18]; kinases significantly downregulated vs DMSO (fold change cutoff −1.25, P-value<0.01), ≤8 h, 0.1-5 μM degrader, 7 cell lines
  Kinase hits: BLK, CDK4, CLK1, CSK, FER, LCK, LIMK1, MAPK8, MAPK9, MKNK2, PLK1, PTK2B, SIKa2, SRC, TNK2, UHMK1, YES1
[18]; number of degraded kinases per library compound
  Total no. kinase hits: 17
[19]
  logFC PFKFB3: −0.4392

## O=C(CCCCCCNC(=O)COc1cccc2c1C(=O)N(C1CCC(=O)NC1=O)C2=O)NCCOc1ccc(Nc2ncc3ccc(=O)n(C4CC5CCC4C5)c3n2)cc1 (centres unmarked) [SB1.G.194]
[20]; experiment wp088
  logFC AURKA (O14965): −1.175
[20]; experiment wp164
  logFC AURKA (O14965): −2.035
[21]; Accession P33981
  logFC TTK: −0.4279
[21]
  logFC TTK (P33981): −0.4279
[22]
  logFC CDK9 (P50750): −0.8391
  logFC of CDK9 (P50750): −0.8391
[23]; experiment wp088
  logFC CDK6: −0.4731
[23]; experiment wp164
  logFC CDK6: −1.23
[23]; Experiment wp088
  logFC of CDK6 (Q00534): −0.4731
[23]; Experiment wp164
  logFC of CDK6 (Q00534): −1.23
[24]; AAK1 (Q2M218-1), experiment wp088, down
  logFC AAK1: −0.3482
[24]; AAK1 (Q2M218-1), experiment wp164, down
  logFC AAK1: −0.379
[24]; AAK1, accession Q2M218-1, experiment wp088, direction of change down
  logFC AAK1: −0.3482
[24]; AAK1, accession Q2M218-1, experiment wp164, direction of change down
  logFC AAK1: −0.379
[25]; AURKB Q96GD4
  logFC AURKB: −0.4883
[25]
  logFC of AURKB (Q96GD4): −0.4883
[26]
  logFC ETNK1: −0.3662
[27]
  logFC: −0.6434
  logFC STK17A: −0.6434
[18]; [29]
  logFC: −0.3846
  logFC AURKB: −0.3846
[18]; Experiment wp088, direction of change down
  logFC FGFR2 (P21802-11): −0.4804
[18]; protein FGFR2 (P21802-11), experiment wp088, down
  logFC FGFR2: −0.4804
